# Test results reported in patent US10961526B2, “Transformant, and method for producing protocatechuic acid or salt thereof using same” (RESEARCH INSTITUTE OF INNOVATIVE TECHNOLOGY FOR THE EARTH, priority 2016, dated 2021).
# Legend:
# Assay type in all cases: cell-based
# [1] = test system: Corynebacterium glutamicum strain R; assay: Glucose consumption under presence of high concentration of protocatechuic acid; details: high concentration of protocatechuic acid (0, 50, 250, 500 mM), 24-hour culture, 33° C.
# Procedure: As indicated in Reference Example 1, Corynebacterium glutamicum was able to grow even under the presence of a high concentration of protocatechuic acid. Then, a glucose consumption ability of Corynebacterium glutamicum under the presence of a high concentration of protocatechuic acid was further studied in the following manner.
# Corynebacterium glutamicum strain R was applied to the above-described A-agar plate containing glucose 4%, and was cultured at 33° C. for 16 hours. One platinum loop of Corynebacterium glutamicum strain R grown on the above-described plate was inoculated in a test tube having therein 10 ml of the above-described A-liquid medium containing glucose 4%, and was subjected to aerobic shaking culture at 33° C. for 16 hours. Corynebacterium glutamicum strain R grown under the above-described conditions was inoculated in 10 ml of the above-described A-liquid medium containing glucose 4% so that the initial bacterial cell concentration OD610=0.2. Simultaneously, protocatechuic acid was added so that the final concentrations thereof became 0, 50, 250, 500 mM, and aerobic shaking culture was carried out at 33° C. After 24-hour culture, culture solutions were collected, and centrifuged (4° C., 15,000×g, 5 minutes). Concentrations of glucose in the supernatants obtained were measured by a glucose sensor in the same manner as Example 2 to be described below. […]
# [2] = test system: Corynebacterium glutamicum strain R; assay: Inhibition by protocatechuic acid of growth in aerobic culture (OD610)
# Source text: (§1) In a case where a product that has cytotoxicity, such as protocatechuic acid, is produced by the fermentation process using microorganisms, it is important that a host microorganism has resistance against the product, that is, hardly suffers from growth inhibition by the product. Then, for studying the degree of resistance against protocatechuic acid of Corynebacterium glutamicum, which is preferable as a host microorganism in the present invention, in comparison with other microorganisms, studies were made on the inhibition by protocatechuic acid of the growth of Corynebacterium glutamicum, Escherichia coli, Bacillus subtilis, Pseudomonas putida, Rhodococcus erythropolis, and Saccharomyces cerevisiae in aerobic culture.
# Corynebacterium glutamicum strain R was applied to an A-agar plate [obtained by dissolving the following in distilled water 1 L: (NH2)2CO 2 g, (NH4)2SO4 7 g, KH2PO4 0.5 g, K2HPO4 0.5 g, MgSO4.7H2O 0.5 g, 0.06% (w/v) Fe2SO4.7H2O+0.042% (w/v) MnSO4.2H2O 1 ml, 0.02% (w/v) biotin solution 1 ml, 0.01% (w/v) thiamine solution 2 ml, yeast extract 2 g, vitamin assay casamino acid 7 g, agar 20 g] containing glucose at 4%, and was cultured at 33° C. for 16 hours. […] The growth of bacterial cells was determined by measuring OD610.
# (§2) How the addition of protocatechuic acid to medium influenced aerobic growth of each strain was analyzed, and the results are shown in FIG. 2.
# [3] = test system: Saccharomyces cerevisiae strain NBRC2376; assay: as above; details: YPD liquid medium, aerobic shaking culture 30° C.
# Source text: as §1
# Further, Saccharomyces cerevisiae strain NBRC2376 was applied to YPD agar plate [2% polypeptone, 1% yeast extract, 2% glucose, and 1.5% agar], and was cultured at 30° C. for 16 hours. Saccharomyces cerevisiae strain NBRC2376 on the plate described above was inoculated in YPD liquid medium [2% polypeptone, 1% yeast extract, and 2% glucose], and was subjected to aerobic shaking culture at 30° C. for 16 hours. […] The growth of bacterial cells was determined by measuring OD610.
# as §2
# [4] = test system: Pseudomonas putida strain ATCC700801; assay: as above; details: LB-liquid medium, aerobic shaking culture 30° C.
# Source text: as §1
# (§3) Further, Escherichia coli strain K12, Bacillus subtilis strain NBRC14144, Pseudomonas putida strain ATCC700801, and Rhodococcus erythropolis strain ATCC27854 were applied to LB-agar plate [containing 1% polypeptone, 0.5% yeast extract, 0.5% sodium chloride, and 1.5% agar]. Escherichia coli strain K12 and Bacillus subtilis strain NBRC14144 were cultured at 37° C. for 16 hours, while Pseudomonas putida strain ATCC700801 and Rhodococcus erythropolis strain ATCC27854 were cultured at 30° C. for 16 hours. Each strain grown on the plate described above was inoculated in 10 ml of LB-liquid medium [1% polypeptone, 0.5% yeast extract, and 0.5% sodium chloride]. Escherichia coli strain K12 and Bacillus subtilis strain NBRC14144 were subjected to aerobic shaking culture at 37° C. for 16 hours, while Pseudomonas putida strain ATCC700801 and Rhodococcus erythropolis strain ATCC27854 were subjected to aerobic shaking culture at 30° C. for 16 hours. Each strain grown under the above-described conditions was inoculated in 10 ml of the LB-liquid medium so that the initial bacterial cell concentration OD610=0.1, and simultaneously protocatechuic acid was added so that the final concentrations were 0, 25, 50, 100, 250, 500 mM. Escherichia coli strain K12 and Bacillus subtilis strain NBRC14144 were subjected to aerobic shaking culture at 37° C., while Pseudomonas putida strain ATCC700801 and Rhodococcus erythropolis strain ATCC27854 was subjected aerobic shaking culture at 30° C. The growth of bacterial cells was determined by measuring OD610.
# as §2
# [5] = test system: Escherichia coli strain K12; assay: as above; details: LB-liquid medium, aerobic shaking culture 37° C.
# Source text: as §1, §3, §2
# [6] = test system: Bacillus subtilis strain NBRC14144; assay: as above; details: LB-liquid medium, aerobic shaking culture 37° C.
# Source text: as §1, §3, §2
# [7] = test system: Rhodococcus erythropolis strain ATCC27854; assay: as above; details: LB-liquid medium, aerobic shaking culture 30° C.
# Source text: as §1, §3, §2
smiles,measurement,setting,value
O=C(O)c1ccc(O)c(O)c1 [protocatechuic acid],decrease in the saccharide consumption by Corynebacterium glutamicum,[1],small
same,growth capacity of Corynebacterium glutamicum,[2]; 500 mM protocatechuic acid,robust growth capacity
same,growth of Corynebacterium glutamicum strain R,"[2]; 250 to 500 mM of protocatechuic acid, A-liquid medium with glucose 4%, aerobic shaking culture 33° C.",robust growth
same,growth of Saccharomyces cerevisiae strain NBRC2376,[3]; 250 mM protocatechuic acid,inhibited
same,growth of Saccharomyces cerevisiae strain NBRC2376,[3]; 500 mM protocatechuic acid,significantly inhibited
same,growth of Pseudomonas putida strain ATCC700801,[4]; 100 mM protocatechuic acid,strongly inhibited
same,growth of Pseudomonas putida strain ATCC700801,[4]; 250 mM protocatechuic acid,substantially completely inhibited
same,growth of Escherichia coli strain K12,[5]; 100 mM protocatechuic acid,significantly inhibited
same,growth of Escherichia coli strain K12,[5]; 250 mM protocatechuic acid,substantially completely inhibited
same,growth of Bacillus subtilis strain NBRC14144,[6]; 250 mM protocatechuic acid,significantly inhibited
same,growth of Bacillus subtilis strain NBRC14144,[6]; 500 mM protocatechuic acid,substantially completely inhibited
same,growth of Rhodococcus erythropolis strain ATCC27854,[7]; 250 mM protocatechuic acid,strongly inhibited
same,growth of Rhodococcus erythropolis strain ATCC27854,[7]; 500 mM protocatechuic acid,substantially completely inhibited
